logP data for six molecules are collected here from EP0894433B1, “A method of preparing a biocidal material” (EASTMAN KODAK COMPANY, priority 1997, dated 1999).

The data set in a line: Partition coefficient between octanol and water by UV/visible absorption. It counts as physicochemical. The settings on record: partition coefficient n-octanol/water, 25°C; read-out: P. On the procedure: As used herein, it provides a measure of the hydrophobicity of the biocide.
A variety of commercial and hydrophobically-modified biocides have been studied. Partition coefficients between octanol and water have been determined at 25°C by UV/visible absorption. First, the calibration curve of each biocide was determined as optical density (ODabs) versus concentration of biocide in µg/g (ppm) of water for the predominantly water-soluble materials and µg/g of octanol for the predominantly oil-soluble biocides.
A known amount of biocide was placed in a glass vessel containing either 10ml of water or 10ml of octanol depending on the solubility of the biocide. An equal volume of the other solvent was added and the glass vessel sealed. The vessel was shaken vigorously for a few minutes and then every few hours for more than 48 hours. Each mixture was placed in a sealed separating funnel and left for a further 24 hours. The water phase of each mixture was removed and the UV/visible spectra run against water with appropriate dilutions to bring absorbance between 0 and 1.5 for the commercial biocides and the octanol fractions were examined for the hydrophobically modified biocides.

For `CCCCCCCCn1sc2ccccc2c1=O` [Compound 1], the logP was greater than 2.52.
Next, `CCCCCCCCCCCCCCCCn1sc2ccccc2c1=O` [Compound 2]: greater than 2.11; `CCCCCCCCn1sc(Cl)cc1=O` [Compound 3]: greater than 2.75; `CCCCCCCCCCCCCCCCCCn1sc(Cl)cc1=O` [Compound 4]: greater than 2.68.
As for `CCCCCCCCCCCC[N+](C)(C)CCOc1ccccc1` [Domiphen™], the logP is roughly 1.7.
Take `Cn1sc2c(c1=O)CCC2` [Promexal™]: the logP was roughly 0.653.
